From US12157778B2, “Peptides for activation of cell signaling in osteoprogenitor cells” (The Regents of the University of California, priority 2018, dated 2024) come the findings set out here.

A short description of series [1]: Alendronate-conjugated peptides on bone metabolism in 2-month-old female mice. Format: in vivo. To be noted: at the two doses used. How it is done: FIGS. 15A-15C show two-month-old female mice treated with PBS control; YLL3-Aln or YLL8-Aln at 100 […], subcutaneously, once every two weeks for 2 doses; or YLL3-Aln or YLL8-Aln at 500 m/kg, one IV dose. Mice were euthanized at 28 days (n=4-5/group).
Trabecular bone formation was measured in the distal femoral metaphysis. *, p<0.05 vs PBS. Arrows show double labeled bone surfaces.
Next, the effects of alendronate-conjugated peptides on bone metabolism were evaluated. Two-month-old female mice were treated with PBS control, YLL3-Ale or YLL8-Ale at 100 μg/kg (25 nmol) or 300 μg/kg (75 nmol), subcutaneously, once every other week, or with one IV dose of 500 μg/kg. Two injections were given per mouse. The total cumulative doses were between 200 and 600 μg/kg/month (25-150 nmol), respectively. Alendronate concentration was approximately 1/10-⅕ of the compound. […] In contrast, YLL8-Ale at the 300 μg/kg×2 SC doses or 500 μg/kg×1 IV dose increased trabecular bone volume by more than 20% (p<0.05 vs. PBS) which was associated with increased trabecular thickness (30%, p<0.05 vs. PBS) (FIG. 15A and FIG. 15B) and number (28%, p<0.05 vs. PBS). Both 100 μg/kg and 300 μg/kg doses of YLL8-Ale increased cortical bone volume by approximately 16% and cortical thickness by approximately 15% (FIG. 15C).

Series [2] in a line: In vivo anabolic effects, 4-month-old mice, 5 μg/kg s.c. 5×/week for 21 days. To be noted: for increase in femoral trabecular bone volume: vs PBS, YLL8 5 μg/kg, hPTH (1-34) 25 μg/kg. As to the method:
FIGS. 10A-10D show the effects of YLL8 on bone formation in vivo. […] All mice received Alizarin red and Calcein at −7 and −2 days before euthanization.
Four-month-old female and male mice were treated with PBS control, YLL3 at 5 μg/kg, YLL8 at 5 μg/kg, or PTH at 25 μg/kg, sc., 5×/week for 28 days (n=4-6/group). Trabecular bone volume was obtained by micro CT scans at the distal femoral metaphysis. Osteocalcin and CTX-1 were measured at the serum.
In another similar study to determine whether YLLs would affect bone metabolism in vivo, YLL3 and YLL8 were injected into 4-month-old female and male mice at 5 μg/kg subcutaneously ([…]). hPTH (1-34) was injected s.c. at 25 μg/kg, 5×/week as a positive control. […] Both YLL8 and hPTH (1-34) increased femoral trabecular bone volume by approximately 130% in the female mice, compared to the PBS-treated mice. In the male mice, YLL8 increase femoral trabecular bone volume by approximately 70%, and hPTH (1-34) increased femoral trabecular bone volume by approximately 30% (FIG. 10A). Mineral apposition rate, a parameter corresponding to osteoblast activity, was increased by more than 70% in the females and about 30% in the males, resulting in an overall increase in surface-based bone formation rate (FIGS. 10A, 10B). The anabolic effect of YLLs was confirmed by increased trabecular bone mass measured at the distal femur metaphysis by micro CT and serum level of osteocalcin (FIG. 11).

In the case of `Cc1ccccc1NC(=O)Nc1ccc(CC(=O)N[C@@H](CCCNC(N)=O)C(=O)N[C@@H](CCC(=O)O)C(=O)N[C@@H](CO)C(=O)N[C@H](C(=O)NCCOCCOCCNC(=O)CCC(=O)NCCOCCOCCNC(=O)CCC(=O)N[C@@H](CCCCNC(=O)[C@H](N)CSC2CC(=O)N(CC3CCC(C(=O)NCCCC(O)(P(=O)(O)O)P(=O)(O)O)CC3)C2=O)C(N)=O)C(C)C)cc1` (stereo partly shown) [YLL3-Ale], the “bone formation or bone mass compared to PBS control” value in series [1] is “failed to achieve statistically significant differences”. With `Cc1ccccc1NC(=O)Nc1ccc(CC(=O)N[C@@H](CCCCNC(=O)CCc2cccnc2)C(=O)N[C@@H](CCCC(=O)O)C(=O)NC2(C(N)=O)CCCCC2)cc1` [YLL8], the “body weights and visible side-effects” value in series [2] (5 μg/kg s.c., daily injection for 21 days) was “did not change body weights or cause any visible side-effects”. As for `CC[C@H](C)[C@H](NC(=O)[C@H](CCC(=O)O)NC(=O)[C@H](CO)NC(=O)[C@@H](NC(=O)[C@@H](N)CO)C(C)C)C(=O)N[C@@H](CCC(N)=O)C(=O)N[C@@H](CC(C)C)C(=O)N[C@@H](CCSC)C(=O)N[C@@H](Cc1cnc[nH]1)C(=O)N[C@@H](CC(N)=O)C(=O)N[C@@H](CC(C)C)C(=O)NCC(=O)N[C@@H](CCCCN)C(=O)N[C@@H](Cc1cnc[nH]1)C(=O)N[C@@H](CC(C)C)C(=O)N[C@@H](CC(N)=O)C(=O)N[C@@H](CO)C(=O)N[C@@H](CCSC)C(=O)N[C@@H](CCC(=O)O)C(=O)N[C@@H](CCCN=C(N)N)C(=O)N[C@H](C(=O)N[C@@H](CCC(=O)O)C(=O)N[C@@H](Cc1c[nH]c2ccccc12)C(=O)N[C@@H](CC(C)C)C(=O)N[C@@H](CCCN=C(N)N)C(=O)N[C@@H](CCCCN)C(=O)N[C@@H](CCCCN)C(=O)N[C@@H](CC(C)C)C(=O)N[C@@H](CCC(N)=O)C(=O)N[C@@H](CC(=O)O)C(=O)N[C@H](C(=O)N[C@@H](Cc1cnc[nH]1)C(=O)N[C@@H](CC(N)=O)C(=O)N[C@@H](Cc1ccccc1)C(=O)O)C(C)C)C(C)C` [hPTH (1-34), Teriparatide], the “increase in femoral trabecular bone volume” value in series [2] (female mice) is recorded as “approximately 130%”; in series [2] (male mice), “approximately 30%”.
